The values that follow come from patent US20050256056A1, “Peptide inhibitors of HIV” (priority 2003, published 2005).

For one test, the system named is HIV-1 NL4-3. The test is described as follows: focal infectivity assay, inhibition of HIV-1 NL4-3 in HeLa H1-JC.37 cells. The format is cell-based. The source says: The term “EC50” refers to the concentration of peptide that inhibits 50% viral activity, including infective activity, as measured in an in vitro assay, including a focal infectivity assay (described in Pincus, et al. Biotechniques 10:336 (1991)).
Peptides and peptide analogs that bind to an HIV target protein of interest are then screened for their effectiveness in inhibiting HIV activity in vitro. One assay for evaluating HIV inhibiting activity in vitro is a focal infectivity assay, described by Pincus, et al. Biotechniques 10:336 (1991). Preferred peptides and peptide analogs will inhibit HIV activity in vitro at a concentration of about 50 μM or less, more preferably at about 40 μM, 30 μM, 25 μM or 20 μM or less, and more preferably at about 15 μM, 10 μM or 5 μM or less.
After re-synthesis of 16 of these as soluble peptides, 13 were tested for ability to inhibit the NL4-3 clone of HIV-1 (the other 3 were insoluble). For these studies a focal infectivity assay was carried out using HeLa H1-JC.37 cells. H1-JC.37 cells are HeLa cells that naturally express the CXCR4 receptor and that have been engineered to express CD4 and CCR5 receptors (Platt, et al. J. Virol. 72:2855 (1998)). Dose-response curves were performed in triplicate experiments with 6 determinations per drug concentration in each experiment. None of these peptides inhibited growth of HeLa H1-JC.37 cells at the concentrations tested (up to 100 μM). […] The purified peak fraction was re-tested for anti-HIV activity, and the EC50 was determined to be 8 μM. The identity of the biologically active peptide has been confirmed with mass spectrometry.

Another test deals with T1, ogp140 (Human immunodeficiency virus type 1 group M subtype B, UniProt P19550).
T1 construct: ogp140, which contains gp120 and the ectodomain of the gp41 subunit in a trimeric form; purchased Chiron Corporation (gift from Dr. Indresh Srivastava, not a purchase)
The format is binding, HIV-1 SF162 strain. The note with it: Table 2 peptides re-synthesized on beads.

Where two headings read alike, the source gives them in different places. Non-standard residues stand in square brackets, D forms with d. Residues, ends and D or L forms follow the SMILES beside them.

T1 sequence (P19550 32-675): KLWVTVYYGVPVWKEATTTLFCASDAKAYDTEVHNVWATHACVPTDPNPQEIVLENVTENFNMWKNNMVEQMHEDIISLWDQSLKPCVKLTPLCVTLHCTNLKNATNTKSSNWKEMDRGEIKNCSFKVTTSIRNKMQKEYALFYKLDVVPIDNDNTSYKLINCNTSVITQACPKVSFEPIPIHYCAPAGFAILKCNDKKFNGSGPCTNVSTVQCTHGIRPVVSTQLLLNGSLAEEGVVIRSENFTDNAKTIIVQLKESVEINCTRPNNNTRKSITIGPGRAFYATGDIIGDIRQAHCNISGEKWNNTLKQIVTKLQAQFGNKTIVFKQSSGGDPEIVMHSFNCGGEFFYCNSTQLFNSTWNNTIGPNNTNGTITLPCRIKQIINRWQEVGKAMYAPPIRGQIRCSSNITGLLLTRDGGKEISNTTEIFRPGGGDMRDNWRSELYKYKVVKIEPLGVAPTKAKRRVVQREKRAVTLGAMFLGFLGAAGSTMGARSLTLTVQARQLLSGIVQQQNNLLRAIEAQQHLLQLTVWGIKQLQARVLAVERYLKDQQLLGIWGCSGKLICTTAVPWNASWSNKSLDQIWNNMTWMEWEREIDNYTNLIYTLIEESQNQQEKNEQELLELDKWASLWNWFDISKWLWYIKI
Protocol for ogp140: The optimal concentrations of glycoproteins for our screening assays were determined to be 0.25-1.25 μg/ml for ogp140 and 1-5 μg/ml for gp120. In order to visualize beads with bound ogp140 or gp120, these proteins were biotinylated so that an enzyme-linked colorimetric assay could be used to identify positive beads. Biotinylation was performed with Sulpho-NHS-biotin at a 5:1 molar ratio of biotin to protein. Reactions were carried out for both 3 minutes and 10 minutes to obtain different levels of biotinylation and were stopped with 2 M Tris-HCl, pH 7.4. The proteins were dialyzed for 4-5 hr to remove excess biotin.
The peptides of Table 2 were re-synthesized on beads.
These secondary libraries were screened with ogp140 under higher stringency (lower protein concentrations of both ogp140 and streptavidin-alkaline phosphatase (ST-AP)). The concentrations of ogp140 used in this screen were 0.06 mg/mL and 0.3 mg/mL. These concentrations are 4-fold lower than those used in the original screen (0.25 mg/mL and 1.25 mg/mL). The amount of ST-AP was lowered from 1:15,000 in the original screen to 1:25,000 in this screen. Approximately 75,000 beads from each library were screened.
From the 34 positive beads of the 8-mer library, the 12 darkest beads were selected for sequence analyses and the results are in Table 3.

Regarding `CC[C@@H](C)[C@@H](NC(=O)[C@@H](Cc1c[nH]c2ccccc12)NC(=O)[C@@H]1CCCN1C(=O)[C@@H](Cc1ccc(O)cc1)NC(=O)[C@@H](CO)NC(=O)[C@H]1CCCN1C(=O)[C@@H](C)N)C(=O)N[C@H](CCCNC(=N)N)C(=O)O` [compound 1] (H-[dA][dP][dS][dY]P[dW][dI][dR]-OH; N-terminus and C-terminus assumed), the half-maximal effective concentration (EC50) in the test on HIV-1 NL4-3 (NL4-3) is > 100 µM.

`CSCC[C@@H](NC(=O)[C@H](N)Cc1c[nH]cn1)C(=O)N[C@H](CC(N)=O)C(=O)N1CCC[C@H]1C(=O)N[C@H](Cc1ccccc1)C(=O)N[C@H](Cc1ccc(O)cc1)C(=O)N[C@H](Cc1ccc(O)cc1)C(=O)N[C@H](CCC(N)=O)C(=O)O` [compound 13] (H-[dH][dM][dN]P[dF][dY][dY][dQ]-OH; N-terminus and C-terminus assumed): in the test on HIV-1 NL4-3 (NL4-3), the 50% effective concentration (EC50) is > 100 µM.

Take `CC(C)[C@@H](NC(=O)[C@@H](Cc1c[nH]cn1)NC(=O)[C@@H](CC(=O)O)NC(=O)[C@@H](Cc1ccccc1)NC(=O)[C@@H]1CCCN1C(=O)[C@@H](CCC(N)=O)NC(=O)[C@@H](Cc1ccc(O)cc1)NC(=O)[C@H](N)Cc1ccc(O)cc1)C(=O)O` [compound 14] (H-[dY][dY][dQ]P[dF][dD][dH][dV]-OH; N-terminus and C-terminus assumed): the EC50 in the test on HIV-1 NL4-3 (NL4-3) stood at 55 µM.

`CC[C@@H](C)[C@@H](NC(=O)[C@@H](Cc1c[nH]c2ccccc12)NC(=O)[C@@H]1CCCN1C(=O)[C@@H](Cc1ccc(O)cc1)NC(=O)[C@@H](CO)NC(=O)[C@H]1CCCN1C(=O)[C@H](N)CCSC)C(=O)N[C@H](CCCNC(=N)N)C(=O)O` [compound 16, mpsyPwir] (H-[dM][dP][dS][dY]P[dW][dI][dR]-OH; N-terminus and C-terminus assumed): at ogp140, the “staining intensity of peptide beads in binding assays with ogp140” value is listed as “stain more intensively”. Further, the EC50 is 8 µM with HIV-1 NL4-3 (HPLC-purified peak fraction re-tested, read-out: EC50 of purified peak fraction, anti-HIV activity) and 17 µM in the test with HIV-1 NL4-3 (NL4-3).
